Our source for the Kd values is US20120095025A1, “SUBSTITUTED [1,2,4]TRIAZOLO[1,5-a]PYRIMIDINES AND THEIR USE AS POTASSIUM CHANNEL MODULATORS” (NEUROSEARCH A/S, priority 2009, published 2012).

The target of the assay is T1, hSK1 channels (Homo sapiens, UniProt Q92952).
T1 construct: expressed in transfected cells; host or cells: HEK293
As to the kind of experiment: Whole-cell patch-clamp recording of SK channel current in HEK293 cells expressing hSK1. The class given is cell-based. Conditions: concentration required for decreasing the baseline current to 50% of the initial current. How it is done: The ionic current through small-conductance Ca^2+-activated K^+ channels (SK channels, subtype 1) is recorded using the whole-cell configuration of the patch-clamp technique in a classic patch-clamp set-up using HEK293 tissue culture cells expressing hSK1 channels as described in e.g. WO 2006/100212.
For inhibitors a Kd value, defined as the concentration required for decreasing the baseline current to 50% of the initial current, was estimated.
`CC(Oc1ccc(C(C)(C)C)cc1)c1ccnc2nc(NC=NO)nn12` (centres unmarked) [Example 1, N-{7-[1-(4-tert-Butylphenoxy)ethyl]-[1,2,4]triazolo[1,5-a]pyrimidin-2-yl}-N′-hydroxy-formamidine] gave a Kd of 100 to 1000 nM.
On to `CCCON=CNc1nc2nccc(C(C)Oc3ccc(C(C)(C)C)cc3)n2n1` (centres unmarked) [Example 2, N-{7-[1-(4-tert-Butylphenoxy)ethyl]-[1,2,4]triazolo[1,5-a]pyrimidin-2-yl}-N′-propyloxy-formamidine], for which the Kd was under 100 nM.
As for `CC(C)ON=CNc1nc2nccc(C(C)Oc3ccc(C(C)(C)C)cc3)n2n1` (centres unmarked) [Example 3, N-{7-[1-(4-tert-Butylphenoxy)ethyl]-[1,2,4]triazolo[1,5-a]pyrimidin-2-yl}-N′-isopropyloxy-formamidine], the figure is over 3000 nM; as for `CON=CNc1nc2nccc(COc3ccc(C(C)(C)C)cc3)n2n1` [Example 4, N-[7-(4-tert-Butylphenoxymethyl)-[1,2,4]triazolo[1,5-a]pyrimidin-2-yl]-N′-methoxy-formamidine], over 3000 nM.
Take `CON=CNc1nc2nccc(C(C)Oc3ccc(C4CCCC4)cc3)n2n1` (centres unmarked) [Example 5, N-{7-[1-(4-cyclopentyl-phenoxy)ethyl]-[1,2,4]triazolo[1,5-a]pyrimidin-2-yl}-N′-methoxy-formamidine]: the Kd was over 3000 nM.
Then `CON=CNc1nc2nccc(C(C)Oc3ccc(C(C)C)cc3)n2n1` (centres unmarked) [Example 6, N-{7-[1-(4-Isopropylphenoxy)ethyl]-[1,2,4]triazolo[1,5-a]pyrimidin-2-yl}-N′-methoxy-formamidine], with over 3000 nM.
Then `CON=CNc1nc2nccc(C(C)Oc3ccc(C(C)(C)C)cc3C)n2n1` (centres unmarked) [Example 7, N-{7-[1-(4-tert-Butyl-2-methylphenoxy)ethyl]-[1,2,4]triazolo[1,5-a]pyrimidin-2-yl}-N′-methoxy-formamidine], with under 100 nM; and `CCC(Oc1ccc(C(C)(C)C)cc1)c1ccnc2nc(NC=NOC)nn12` (centres unmarked) [Example 8, N-{7-[1-(4-tert-Butylphenoxy)propyl]-[1,2,4]triazolo[1,5-a]pyrimidin-2-yl}-N′-methoxy-formamidine], with under 100 nM.
In the case of `CON=CNc1nc2nccc(C(C)Oc3ccc(OC(C)(C)C)cc3)n2n1` (centres unmarked) [Example 9, N-{7-[1-(4-tert-Butoxy-phenoxy)ethyl]-[1,2,4]triazolo[1,5-a]pyrimidin-2-yl}-N′-methoxy-formamidine], the Kd was under 100 nM.
In turn, `CON=CNc1nc2nccc(C(C)(C)Oc3ccc(C(C)(C)C)cc3)n2n1` [Example 10, N-{7-[1-(4-tert-Butylphenoxy)-1-methyl-ethyl]-[1,2,4]triazolo[1,5-a]pyrimidin-2-yl}-N′-methoxy-formamidine] registered a Kd of 100 to 1000 nM.
Then `CON=CNc1nc2nccc(C(C)Oc3ccc(C(C)(C)C)cc3)n2n1` (centres unmarked) [Example A, N-{7-[1-(4-tert-Butylphenoxy)ethyl]-[1,2,4]triazolo[1,5-a]pyrimidin-2-yl}-N′-methoxy-formamidine], with under 100 nM.
